According to ChEMBL document CHEMBL3045802, “Synthesis and in vitro antitumor activity of new quinoline, pyrimido[4,5-b]quinoline, [1,2,3]triazino[4,5-b]quinoline, and [1,2,4]triazolo[2,3:3,4]pyrimido[6,5-b]quinoline analogs” (2013):

What was measured:
Type in all cases: functional
SK-MEL-5 = experiment: Cytotoxicity against Homo sapiens (human) SK-MEL-5 cells assessed as growth inhibition at 10 uM after 48 hr by coulter counter analysis; settings: SK-MEL-5, 48 h, read-out: GI
COLO 205 = experiment: Cytotoxicity against Homo sapiens (human) COLO205 cells assessed as growth inhibition at 10 uM after 48 hr by coulter counter analysis; settings: COLO 205, 48 h, read-out: GI
786-0 = experiment: Cytotoxicity against Homo sapiens (human) 786-0 cells assessed as growth inhibition at 10 uM after 48 hr by coulter counter analysis; settings: 786-0, 48 h, read-out: GI
OVCAR-5 = experiment: Cytotoxicity against Homo sapiens (human) OVCAR5 cells assessed as growth inhibition at 10 uM after 48 hr by coulter counter analysis; settings: OVCAR-5, 48 h, read-out: GI
CAKI-1 = experiment: Cytotoxicity against Homo sapiens (human) Caki1 cells assessed as growth inhibition at 10 uM after 48 hr by coulter counter analysis; settings: CAKI-1, 48 h, read-out: GI
SN12C = experiment: Cytotoxicity against Homo sapiens (human) SN12C cells assessed as growth inhibition at 10 uM after 48 hr by coulter counter analysis; settings: read-out: GI
MDA-MB-231 = experiment: Cytotoxicity against Homo sapiens (human) MDA-MB-231 cells assessed as growth inhibition at 10 uM after 48 hr by coulter counter analysis; settings: MDA-MB-231, 48 h, read-out: GI
NCI-H522 = experiment: Cytotoxicity against Homo sapiens (human) NCI-H522 cells assessed as growth inhibition at 10 uM after 48 hr by coulter counter analysis; settings: NCI-H522, 48 h, read-out: GI
SW-620 = experiment: Cytotoxicity against Homo sapiens (human) SW620 cells assessed as growth inhibition at 10 uM after 48 hr by coulter counter analysis; settings: SW-620, 48 h, read-out: GI
K562 = experiment: Cytotoxicity against Homo sapiens (human) K562 cells assessed as growth inhibition at 10 uM after 48 hr by coulter counter analysis; settings: K562, 48 h, read-out: GI
UACC-257 = experiment: Cytotoxicity against Homo sapiens (human) UACC257 cells assessed as growth inhibition at 10 uM after 48 hr by coulter counter analysis; settings: UACC-257, 48 h, read-out: GI
LOX IMVI = experiment: Cytotoxicity against Homo sapiens (human) LOXIMVI cells assessed as growth inhibition at 10 uM after 48 hr by coulter counter analysis; settings: read-out: GI
A498 = experiment: Cytotoxicity against Homo sapiens (human) A498 cells assessed as growth inhibition at 10 uM after 48 hr by coulter counter analysis; settings: A498, 48 h, read-out: GI
BT-549 = experiment: Cytotoxicity against Homo sapiens (human) BT549 cells assessed as growth inhibition at 10 uM after 48 hr by coulter counter analysis; settings: BT-549, 48 h, read-out: GI
[1] = Cytotoxicity against Homo sapiens (human) NCI-ADR-RES cells assessed as growth inhibition at 10 uM after 48 hr by coulter counter analysis; settings: read-out: GI
SF-295 = experiment: Cytotoxicity against Homo sapiens (human) SF295 cells assessed as growth inhibition at 10 uM after 48 hr by coulter counter analysis; settings: SF-295, 48 h, read-out: GI
MDA-MB-468 = experiment: Cytotoxicity against Homo sapiens (human) MDA-MB-468 cells assessed as growth inhibition at 10 uM after 48 hr by coulter counter analysis; settings: MDA-MB-468, 48 h, read-out: GI
NCI-H460 = experiment: Cytotoxicity against Homo sapiens (human) NCI-H460 cells assessed as growth inhibition at 10 uM after 48 hr by coulter counter analysis; settings: NCI-H460, 48 h, read-out: GI
UO-31 = experiment: Cytotoxicity against Homo sapiens (human) UO31 cells assessed as growth inhibition at 10 uM after 48 hr by coulter counter analysis; settings: UO-31, 48 h, read-out: GI
HCT-116 = experiment: Cytotoxicity against Homo sapiens (human) HCT116 cells assessed as growth inhibition at 10 uM after 48 hr by coulter counter analysis; settings: HCT-116, 48 h, read-out: GI
ACHN = experiment: Cytotoxicity against Homo sapiens (human) ACHN cells assessed as growth inhibition at 10 uM after 48 hr by coulter counter analysis; settings: read-out: GI
SNB-75 = experiment: Cytotoxicity against Homo sapiens (human) SNB75 cells assessed as growth inhibition at 10 uM after 48 hr by coulter counter analysis; settings: SNB-75, 48 h, read-out: GI
EKVX = experiment: Cytotoxicity against Homo sapiens (human) EKVX cells assessed as growth inhibition at 10 uM after 48 hr by coulter counter analysis; settings: read-out: GI
HT-29 = experiment: Cytotoxicity against Homo sapiens (human) HT-29 cells assessed as growth inhibition at 10 uM after 48 hr by coulter counter analysis; settings: HT-29, 48 h, read-out: GI
KM12 = experiment: Cytotoxicity against Homo sapiens (human) KM12 cells assessed as growth inhibition at 10 uM after 48 hr by coulter counter analysis; settings: KM12, 48 h, read-out: GI
CCRF-CEM = experiment: Cytotoxicity against Homo sapiens (human) CCRF-CEM cells assessed as growth inhibition at 10 uM after 48 hr by coulter counter analysis; settings: read-out: GI
MCF7 = experiment: Cytotoxicity against Homo sapiens (human) MCF7 cells assessed as growth inhibition at 10 uM after 48 hr by coulter counter analysis; settings: MCF7, 48 h, read-out: GI
OVCAR-3 = experiment: Cytotoxicity against Homo sapiens (human) OVCAR3 cells assessed as growth inhibition at 10 uM after 48 hr by coulter counter analysis; settings: OVCAR-3, 48 h, read-out: GI
MOLT-4 = experiment: Cytotoxicity against Homo sapiens (human) MOLT4 cells assessed as growth inhibition at 10 uM after 48 hr by coulter counter analysis; settings: MOLT-4, 48 h, read-out: GI
TK-10 = experiment: Cytotoxicity against Homo sapiens (human) TK10 cells assessed as growth inhibition at 10 uM after 48 hr by coulter counter analysis; settings: TK-10, 48 h, read-out: GI
SK-OV-3 = experiment: Cytotoxicity against Homo sapiens (human) SKOV3 cells assessed as growth inhibition at 10 uM after 48 hr by coulter counter analysis; settings: SK-OV-3, 48 h, read-out: GI
SR = experiment: Cytotoxicity against Homo sapiens (human) SR cells assessed as growth inhibition at 10 uM after 48 hr by coulter counter analysis; settings: read-out: GI
SF-268 = experiment: Cytotoxicity against Homo sapiens (human) SF268 cells assessed as growth inhibition at 10 uM after 48 hr by coulter counter analysis; settings: SF-268, 48 h, read-out: GI
SK-MEL-28 = experiment: Cytotoxicity against Homo sapiens (human) SK-MEL-28 cells assessed as growth inhibition at 10 uM after 48 hr by coulter counter analysis; settings: SK-MEL-28, 48 h, read-out: GI

Row | Structure (SMILES) | inhibition of growth at 10 µM (SK-MEL-5) | inhibition of growth at 10 µM (COLO 205) | inhibition of growth at 10 µM (786-0) | inhibition of growth at 10 µM (OVCAR-5) | inhibition of growth at 10 µM (CAKI-1) | inhibition of growth at 10 µM (SN12C) | inhibition of growth at 10 µM (MDA-MB-231) | inhibition of growth at 10 µM (NCI-H522) | inhibition of growth at 10 µM (SW-620) | inhibition of growth at 10 µM (K562) | inhibition of growth at 10 µM (UACC-257) | inhibition of growth at 10 µM (LOX IMVI) | inhibition of growth at 10 µM (A498) | inhibition of growth at 10 µM (BT-549) | inhibition of growth at 10 µM [1] | inhibition of growth at 10 µM (SF-295) | inhibition of growth at 10 µM (MDA-MB-468) | inhibition of growth at 10 µM (NCI-H460) | inhibition of growth at 10 µM (UO-31) | inhibition of growth at 10 µM (HCT-116) | also measured
1 | N#CCc1nc2c(c(=O)[nH]1)C(c1ccc(Cl)cc1)C1=C(CCCC1)N2 (stereo unspecified) | < 10% | 10.4% | < 10% | < 10% | < 10% | 15.5% | < 10% | 11.4% | < 10% | < 10% | < 10% | < 10% | 13% | < 10% | < 10% | < 10% | < 10% | < 10% | 37.7% | < 10% | inhibition of growth at 10 µM (ACHN): 13.8%; inhibition of growth at 10 µM (SNB-75): 20.4%; inhibition of growth at 10 µM (EKVX): 13%; inhibition of growth at 10 µM (HT-29): < 10%; inhibition of growth at 10 µM (KM12): < 10%; inhibition of growth at 10 µM (CCRF-CEM): < 10%; inhibition of growth at 10 µM (MCF7): < 10%; inhibition of growth at 10 µM (OVCAR-3): < 10%; inhibition of growth at 10 µM (MOLT-4): < 10%; inhibition of growth at 10 µM (TK-10): < 10%; inhibition of growth at 10 µM (SK-OV-3): < 10%; inhibition of growth at 10 µM (SR): < 10%; inhibition of growth at 10 µM (SF-268): < 10%; inhibition of growth at 10 µM (SK-MEL-28): < 10%
2 | COc1ccc(C2C3=C(CCCC3)Nc3nc(CC#N)[nH]c(=O)c32)cc1OC (stereo unspecified) | < 10% | < 10% | < 10% | < 10% | < 10% | < 10% | < 10% | < 10% | < 10% | < 10% | < 10% | < 10% | < 10% | < 10% | < 10% | < 10% | < 10% | < 10% | 26.9% | < 10% | inhibition of growth at 10 µM (ACHN): < 10%; inhibition of growth at 10 µM (SNB-75): < 10%; inhibition of growth at 10 µM (EKVX): < 10%; inhibition of growth at 10 µM (HT-29): < 10%; inhibition of growth at 10 µM (KM12): < 10%; inhibition of growth at 10 µM (CCRF-CEM): < 10%; inhibition of growth at 10 µM (MCF7): < 10%; inhibition of growth at 10 µM (OVCAR-3): < 10%; inhibition of growth at 10 µM (MOLT-4): < 10%; inhibition of growth at 10 µM (TK-10): < 10%; inhibition of growth at 10 µM (SK-OV-3): < 10%; inhibition of growth at 10 µM (SR): < 10%; inhibition of growth at 10 µM (SF-268): < 10%; inhibition of growth at 10 µM (SK-MEL-28): < 10%
3 | O=c1[nH]c(-c2ccccc2)nc2c1C(c1ccc(Cl)cc1)C1=C(CCCC1)N2 (stereo unspecified) | 17.8% | < 10% | < 10% | < 10% | < 10% | < 10% | < 10% | 20.2% | < 10% | 11.2% | < 10% | 11.2% | 11.4% | < 10% | < 10% | < 10% | < 10% | < 10% | 43.3% | < 10% | inhibition of growth at 10 µM (ACHN): < 10%; inhibition of growth at 10 µM (SNB-75): 15.5%; inhibition of growth at 10 µM (EKVX): < 10%; inhibition of growth at 10 µM (HT-29): < 10%; inhibition of growth at 10 µM (KM12): < 10%; inhibition of growth at 10 µM (CCRF-CEM): < 10%; inhibition of growth at 10 µM (MCF7): < 10%; inhibition of growth at 10 µM (OVCAR-3): < 10%; inhibition of growth at 10 µM (MOLT-4): 13.6%; inhibition of growth at 10 µM (TK-10): < 10%; inhibition of growth at 10 µM (SK-OV-3): < 10%; inhibition of growth at 10 µM (SR): < 10%; inhibition of growth at 10 µM (SF-268): < 10%; inhibition of growth at 10 µM (SK-MEL-28): < 10%
4 | CN(C)c1ccc(-c2nc3c(c(=O)[nH]2)C(c2ccc(Cl)cc2)C2=C(CCCC2)N3)cc1 (stereo unspecified) | < 10% | 10.2% | < 10% | < 10% | < 10% | 14.6% | 12% | 15.8% | < 10% | < 10% | < 10% | < 10% | < 10% | < 10% | < 10% | < 10% | < 10% | < 10% | 47.4% | < 10% | inhibition of growth at 10 µM (ACHN): 13.1%; inhibition of growth at 10 µM (SNB-75): 12%; inhibition of growth at 10 µM (EKVX): < 10%; inhibition of growth at 10 µM (HT-29): < 10%; inhibition of growth at 10 µM (KM12): < 10%; inhibition of growth at 10 µM (CCRF-CEM): < 10%; inhibition of growth at 10 µM (MCF7): < 10%; inhibition of growth at 10 µM (OVCAR-3): 11.1%; inhibition of growth at 10 µM (MOLT-4): < 10%; inhibition of growth at 10 µM (TK-10): < 10%; inhibition of growth at 10 µM (SK-OV-3): < 10%; inhibition of growth at 10 µM (SR): < 10%; inhibition of growth at 10 µM (SF-268): < 10%; inhibition of growth at 10 µM (SK-MEL-28): < 10%
